Assay results as given in patent US20240165097A1, “PHARMACEUTICAL COMPOSITION FOR THE TREATMENT OF ALZHEIMER'S DISEASE OR DEMENTIA” (Heptares Therapeutics Limited, priority 2021, published 2024).
Where two headings read alike, the source gives them in different places.

Key:
[1] = Example C: HTL0018318 plasma and urine pharmacokinetics; type: in vivo, human; details: for CL renal / Cmax / AUC / AUC(0-inf) / half-life / Tmax: human, oral; for Cmax / AUC / AUC(0-inf) / half-life / Tmax: plasma; for AUC: Tau = 24 hrs, read-out: AUC0-tau (mean); for AUC(0-inf): read-out: AUC0-inf (mean)
Experimental: On the days between, only pre-dose PK samples were taken. The last PK blood sample was taken between 7-14 days after the last HTL0018318 dose (Table 7).
For these calculations, data of 15 mg and 25 mg HTL0018318 were grouped together. […]
All PK analyses were performed in Phoenix 64 build 6.4.0.768 using WinNonlin 6.4. Statistical analysis was performed in R version 3.3.1 (2016-06-21) Copyright (C) 2016 The R Foundation for Statistical Computing (Platform: x86_64-w64-mingw32/x64 64-bit).

[2] = in humans; cited from earlier work
[3] = fifth dose, 15 and 25 mg grouped
[4] = first dose, 15 and 25 mg grouped

**Q.** With `CCOC(=O)N1C2CCC1CC(N1CCC3(CC1)CNC(=O)C3)C2` (centres unmarked) [HTL0018318, ethyl 3-(3-oxo-2,8-diazaspiro[4.5]dec-8-yl)-8-azabicyclo[3.2.1]octane-8-carboxylate] as the compound, how does the “Ae (mean)” value ([1]; 15 mg + DPZ, 1st dose) read?
**A.** 39.9%

**Q.** What about the “CL/F (mean)” value ([1]; 15 mg + DPZ, 1st dose) of the same compound?
**A.** 14.7 L/h

**Q.** What about the “Ae (mean)” value ([1]; 15 mg + DPZ, 5th dose) of the same compound?
**A.** 51.5%

**Q.** What about the “CL/F (mean)” value ([1]; 15 mg + DPZ, 5th dose) of the same compound?
**A.** 14.0 L/h

**Q.** And the “mean ratio AUC0-tau fifth dose / AUC0-inf first dose” value ([1]; 15 mg alone)?
**A.** 1.04

**Q.** And the “mean ratio AUC0-tau fifth dose / AUC0-tau first dose” value ([1]; 15 mg alone)?
**A.** 1.27

**Q.** What about the “Ae (mean)” value ([1]; 15 mg only, 1st dose) of the same compound?
**A.** 39.2%

**Q.** What about the “CL/F (mean)” value ([1]; 15 mg only, 1st dose) of the same compound?
**A.** 14.2 L/h

**Q.** What about the “Ae (mean)” value ([1]; 15 mg only, 5th dose) of the same compound?
**A.** 47.9%

**Q.** And the “CL/F (mean)” value ([1]; 15 mg only, 5th dose)?
**A.** 14.0 L/h

**Q.** What about the “mean ratio AUC0-tau fifth dose / AUC0-inf first dose” value ([1]; 15 mg, donepezil co-dosed) of the same compound?
**A.** 1.04

**Q.** And the “mean ratio AUC0-tau fifth dose / AUC0-tau first dose” value ([1]; 15 mg, donepezil co-dosed)?
**A.** 1.23

**Q.** And the “Ae (mean)” value ([1]; 25 mg + DPZ, 1st dose)?
**A.** 41.1%

**Q.** What about the “CL/F (mean)” value ([1]; 25 mg + DPZ, 1st dose) of the same compound?
**A.** 17.0 L/h

**Q.** And the “Ae (mean)” value ([1]; 25 mg + DPZ, 5th dose)?
**A.** 47.7%

**Q.** What about the “CL/F (mean)” value ([1]; 25 mg + DPZ, 5th dose) of the same compound?
**A.** 16.0 L/h

**Q.** And the “mean ratio AUC0-tau fifth dose / AUC0-inf first dose” value ([1]; 25 mg alone)?
**A.** 1.06

**Q.** What about the “mean ratio AUC0-tau fifth dose / AUC0-tau first dose” value ([1]; 25 mg alone) of the same compound?
**A.** 1.23

**Q.** What about the “Ae (mean)” value ([1]; 25 mg only, 1st dose) of the same compound?
**A.** 32.6%

**Q.** And the “CL/F (mean)” value ([1]; 25 mg only, 1st dose)?
**A.** 17.6 L/h

**Q.** What about the “Ae (mean)” value ([1]; 25 mg only, 5th dose) of the same compound?
**A.** 44.1%

**Q.** What about the “CL/F (mean)” value ([1]; 25 mg only, 5th dose) of the same compound?
**A.** 16.6 L/h

**Q.** And the “mean ratio AUC0-tau fifth dose / AUC0-inf first dose” value ([1]; 25 mg, donepezil co-dosed)?
**A.** 1.03

**Q.** What about the “mean ratio AUC0-tau fifth dose / AUC0-tau first dose” value ([1]; 25 mg, donepezil co-dosed) of the same compound?
**A.** 1.21

**Q.** And the pharmacokinetic steady-state reached ([1]; daily dosing 15 or 25 mg)?
**A.** on or before the fifth daily dose

**Q.** And the “ratio of AUC0-tau, in combination with donepezil vs alone” value [1, 3]?
**A.** 1.00

**Q.** And the “ratio of Cmax, in combination with donepezil vs alone” value [1, 3]?
**A.** 1.04

**Q.** What about the “ratio of Cmin, in combination with donepezil vs alone” value [1, 3] of the same compound?
**A.** 0.911

**Q.** And the “ratio of Tmax, in combination with donepezil vs alone” value [1, 3]?
**A.** 0.974

**Q.** And the “ratio of AUC0-24, in combination with donepezil vs alone” value [1, 4]?
**A.** 1.02

**Q.** And the “ratio of Cmax, in combination with donepezil vs alone” value [1, 4]?
**A.** 1.05

**Q.** And the “ratio of Tmax, in combination with donepezil vs alone” value [1, 4]?
**A.** 1.01

**Q.** What about the CL renal ([1]; plasma and urine, 25 mg + DPZ, 1st dose) of the same compound?
**A.** 129 mL/min

**Q.** And the CL renal ([1]; plasma and urine, 25 mg + DPZ, 5th dose)?
**A.** 113 mL/min

**Q.** What about the CL renal ([1]; plasma and urine, 25 mg, 25 mg only, 1st dose) of the same compound?
**A.** 104 mL/min

**Q.** What about the CL renal ([1]; plasma and urine, 25 mg, 25 mg only, 5th dose) of the same compound?
**A.** 109 mL/min

**Q.** And the Cmax ([1]; 15 mg + DPZ, 1st dose)?
**A.** 91.2 ng/mL

**Q.** What about the AUC ([1]; 15 mg + DPZ, 1st dose) of the same compound?
**A.** 932 ng·h/mL

**Q.** And the AUC(0-inf) ([1]; 15 mg + DPZ, 1st dose)?
**A.** 1120 ng·h/mL

**Q.** And the half-life ([1]; 15 mg + DPZ, 1st dose, read-out: Half-life (mean) (converted))?
**A.** 8.97 h

**Q.** And the Tmax ([1]; 15 mg + DPZ, 1st dose, read-out: Tmax (median))?
**A.** 2.5 h

**Q.** And the Cmax ([1]; 15 mg + DPZ, 5th dose)?
**A.** 109 ng/mL

**Q.** And the AUC ([1]; 15 mg + DPZ, 5th dose)?
**A.** 1150 ng·h/mL

**Q.** And the half-life ([1]; 15 mg + DPZ, 5th dose, read-out: Half-life (mean) (converted))?
**A.** 11.6 h

**Q.** What about the Tmax ([1]; 15 mg + DPZ, 5th dose, read-out: Tmax (median)) of the same compound?
**A.** 1.74 h

**Q.** And the Cmax ([1]; 15 mg, 15 mg only, 1st dose)?
**A.** 83.4 ng/mL

**Q.** And the AUC ([1]; 15 mg, 15 mg only, 1st dose)?
**A.** 919 ng·h/mL

**Q.** And the AUC(0-inf) ([1]; 15 mg, 15 mg only, 1st dose)?
**A.** 1130 ng·h/mL

**Q.** What about the half-life ([1]; 15 mg, 15 mg only, 1st dose, read-out: Half-life (mean) (converted)) of the same compound?
**A.** 9.25 h

**Q.** And the Tmax ([1]; 15 mg, 15 mg only, 1st dose, read-out: Tmax (median))?
**A.** 2 h

**Q.** What about the Cmax ([1]; 15 mg, 15 mg only, 5th dose) of the same compound?
**A.** 103 ng/mL

**Q.** And the AUC ([1]; 15 mg, 15 mg only, 5th dose)?
**A.** 1180 ng·h/mL

**Q.** And the half-life ([1]; 15 mg, 15 mg only, 5th dose, read-out: Half-life (mean) (converted))?
**A.** 13.8 h

**Q.** What about the Tmax ([1]; 15 mg, 15 mg only, 5th dose, read-out: Tmax (median)) of the same compound?
**A.** 2.05 h

**Q.** What about the Cmax ([1]; 25 mg + DPZ, 1st dose) of the same compound?
**A.** 139 ng/mL

**Q.** What about the AUC ([1]; 25 mg + DPZ, 1st dose) of the same compound?
**A.** 1410 ng·h/mL

**Q.** What about the AUC(0-inf) ([1]; 25 mg + DPZ, 1st dose) of the same compound?
**A.** 1710 ng·h/mL

**Q.** What about the half-life ([1]; 25 mg + DPZ, 1st dose, read-out: Half-life (mean) (converted)) of the same compound?
**A.** 8.73 h

**Q.** What about the Tmax ([1]; 25 mg + DPZ, 1st dose, read-out: Tmax (median)) of the same compound?
**A.** 1.76 h

**Q.** And the Cmax ([1]; 25 mg + DPZ, 5th dose)?
**A.** 171 ng/mL

**Q.** What about the AUC ([1]; 25 mg + DPZ, 5th dose) of the same compound?
**A.** 1740 ng·h/mL

**Q.** What about the half-life ([1]; 25 mg + DPZ, 5th dose, read-out: Half-life (mean) (converted)) of the same compound?
**A.** 10.7 h

**Q.** What about the Tmax ([1]; 25 mg + DPZ, 5th dose, read-out: Tmax (median)) of the same compound?
**A.** 2 h

**Q.** What about the Cmax ([1]; 25 mg, 25 mg only, 1st dose) of the same compound?
**A.** 135 ng/mL

**Q.** What about the AUC ([1]; 25 mg, 25 mg only, 1st dose) of the same compound?
**A.** 1370 ng·h/mL

**Q.** What about the AUC(0-inf) ([1]; 25 mg, 25 mg only, 1st dose) of the same compound?
**A.** 1650 ng·h/mL

**Q.** And the half-life ([1]; 25 mg, 25 mg only, 1st dose, read-out: Half-life (mean) (converted))?
**A.** 8.52 h

**Q.** What about the Tmax ([1]; 25 mg, 25 mg only, 1st dose, read-out: Tmax (median)) of the same compound?
**A.** 1.75 h

**Q.** What about the Cmax ([1]; 25 mg, 25 mg only, 5th dose) of the same compound?
**A.** 162 ng/mL

**Q.** What about the AUC ([1]; 25 mg, 25 mg only, 5th dose) of the same compound?
**A.** 1710 ng·h/mL

**Q.** And the half-life ([1]; 25 mg, 25 mg only, 5th dose, read-out: Half-life (mean) (converted))?
**A.** 13.4 h

**Q.** And the Tmax ([1]; 25 mg, 25 mg only, 5th dose, read-out: Tmax (median))?
**A.** 1.76 h

**Q.** And the Tmax ([1]; 25 mg, 15 and 25 mg, with and without donepezil, read-out: Tmax, range over groups)?
**A.** 1.74 to 2.5 h

**Q.** What about the half-life ([1]; 25 mg, 15 and 25 mg, with and without donepezil, read-out: half-life following the fifth dose, range over groups) of the same compound?
**A.** 10.7 to 13.8 h

**Q.** And the CL renal ([1]; urine and plasma, 15 mg + DPZ, 1st dose)?
**A.** 109 mL/min

**Q.** What about the CL renal ([1]; urine and plasma, 15 mg + DPZ, 5th dose) of the same compound?
**A.** 109 mL/min

**Q.** And the CL renal ([1]; urine and plasma, 15 mg, 15 mg only, 1st dose)?
**A.** 109 mL/min

**Q.** And the CL renal ([1]; urine and plasma, 15 mg, 15 mg only, 5th dose)?
**A.** 104 mL/min

**Q.** What about the Tmax [2] of the same compound?
**A.** 1 to 2 h

**Q.** What about the half-life [2] of the same compound?
**A.** approximately 16 hours
